# Source: PMC12655529, “Serendipitous Hinge Modulation Hypothetically Reprograms Caerin 1.1-LC Antibacterial Mechanism and Gram-Negative Selectivity” (Pharmaceutics, 2025)
# Ends that are not written are not given here.
# What was measured:
# [1] = test system: Enterococcus faecalis NCTC 12697; format: cell-based; conditions: NCTC 12697
# Procedure: (§1) The antimicrobial activities of the peptides were evaluated by determining their minimal inhibitory concentration (MIC) and minimal bactericidal concentration (MBC) values following reported protocols [20]. The tested microorganisms included seven Gram-negative bacterial strains (Escherichia coli ATCC 8739, E. coli ATCC-BAA 2340, E. coli NCTC 13846, Klebsiella pneumoniae ATCC 43816, K. pneumoniae ATCC BAA-2342, Pseudomonas aeruginosa ATCC 9027, Acinetobacter baumannii ATCC BAA-747), three Gram-positive bacterial strains (Staphylococcus aureus ATCC 6538, Enterococcus faecalis NCTC 12697, MRSA NCTC 12493, and the fungal strain Candida albicans ATCC 10231. For the assay, each bacterial strain was cultured overnight at 37 °C in 100 mL of medium in a flask. The cultures were then subcultured to reach the logarithmic growth phase and diluted to 5 × 10^5 CFU/mL. Peptide samples were serially diluted two-fold in microplates, with concentrations ranging from 128 μM to 1 μM. The diluted bacterial suspensions were mixed with the peptide solutions and incubated overnight at 37 °C. The MIC values were determined by measuring the absorbance of each well using a Synergy HT plate reader (Agilent, Cheshire, UK). For MBC determination, aliquots from wells showing no visible growth were inoculated onto agar plates to assess bacterial viability. Each experiment was repeated independently three times and conducted in three independent replicates.
# [2] = test system: Escherichia coli ATCC 8739; format: cell-based; conditions: ATCC 8739
# [3] = test system: Acinetobacter baumannii ATCC BAA-747; format: cell-based; conditions: ATCC BAA-747
# Procedure: as §1
# [4] = test system: MRSA NCTC 12493; format: cell-based, Staphylococcus aureus
# [5] = test system: E. coli (ATCC-BAA 2340); format: cell-based, Escherichia coli; conditions: ATCC-BAA 2340
# Procedure: The peptide sensitivity was determined in different salt- and serum-containing environments. Bacterial strains were prepared following the MIC detection protocol described previously. To evaluate peptide sensitivity under physiological conditions, various concentrations of salt ions (150 mM NaCl, 4.5 mM KCl, 2 mM CaCl2, 1 mM MgCl2, 8 µM ZnCl2, 6 µM NH4Cl, or 4 µM FeCl3) and serum (10% FBS) were prepared in McCartney bottles prior to the addition of bacterial suspensions. The subcultured bacterial suspensions were then introduced to these modified media conditions. For MIC determination, the treated bacterial suspensions were diluted and dispensed into 96-well plates containing peptide solutions at graded concentrations. This assay allowed for the detection of potential alterations in MIC values, serving as an indicator of peptide sensitivity under different physiological conditions. All experiments were independently repeated three times, each with three replicates.
# [6] = test system: E. coli ATCC BAA-2340; format: cell-based, Escherichia coli
# Procedure: as §1
# [7] = test system: horse red blood cells; assay: Haemolysis assay; format: cell-based; conditions: concentration inducing 10% haemolysis of horse erythrocytes; 4% (v/v) in PBS, 2 h, 37 °C, absorbance 570 nm; no haemolysis at maximum testing concentration (128 μM) recorded as 256 μM
# Procedure: The peptide cytotoxicity against mammalian erythrocytes was evaluated by haemolysis assay on horse red blood cells (E&O Laboratories Ltd., Falkirk, UK). Fresh horse blood was washed three times with PBS and resuspended to a final concentration of 4% (v/v) in PBS. The diluted blood suspension was then mixed with peptide solutions at varying concentrations and incubated for 2 h at 37 °C. Red blood cell suspensions treated with 0.1% Triton X-100 and PBS were used as controls. The Triton X-100-treated suspension was the positive control (for 100% haemolysis), while the PBS-treated suspension was the blank control. Following incubation, the mixtures were centrifuged at 1000× g for 10 min to separate erythrocytes from the supernatant. The absorbance of the supernatants was detected at 570 nm. The percentage haemolysis was calculated by following the equationPercentage Haemolysis = (AbsSample − AbsBlank)/(AbsPositive − AbsBlank) × 100%
# [8] = test system: K. pneumoniae ATCC BAA-2342; format: cell-based, Klebsiella pneumoniae
# Procedure: as §1
# [9] = test system: Klebsiella pneumoniae ATCC 43816; format: cell-based; conditions: ATCC 43816
# Procedure: as §1
# [10] = test system: Gram-positive bacteria; assay: Geometric mean MIC and therapeutic index, Gram-positive; format: cell-based; conditions: geometric mean of MICs
# [11] = test system: Pseudomonas aeruginosa ATCC 9027; format: cell-based
# Procedure: as §1
# [12] = test system: Staphylococcus aureus ATCC 6538; format: cell-based; conditions: ATCC 6538
# Procedure: as §1
# [13] = test system: E. coli NCTC 13846; format: cell-based, Escherichia coli
# Procedure: as §1
# [14] = test system: Gram-negative bacteria; assay: Geometric mean MIC and therapeutic index, Gram-negative; format: cell-based; conditions: geometric mean of MICs
Substance,"MBC, E. faecalis (NCTC 12697) [1] [µM]","MIC, E. faecalis (NCTC 12697) [1] [µM]","MBC, E. coli (ATCC 8739) [2] [µM]","MIC, E. coli (ATCC 8739) [2] [µM]","MBC, A. baumannii (ATCC BAA-747) [3] [µM]","MIC, A. baumannii (ATCC BAA-747) [3] [µM]","MBC, MRSA (NCTC 12493) [4] [µM]","MIC, MRSA (NCTC 12493) [4] [µM]","MBC, E. coli (ATCC BAA-2340) [6] [µM]","MIC, E. coli (ATCC BAA-2340) [6] [µM]",HC10 [7] [µM],"MBC, K. pneumoniae (ATCC BAA-2342) [8] [µM]","MIC, K. pneumoniae (ATCC BAA-2342) [8] [µM]","MBC, K. pneumoniae (ATCC 43816) [9] [µM]","MIC, K. pneumoniae (ATCC 43816) [9] [µM]",GM MIC Gram-Positive [10] [µM],"MBC, P. aeruginosa (ATCC 9027) [11]","MIC, P. aeruginosa (ATCC 9027) [11]","MBC, S. aureus (ATCC 6538) [12] [µM]","MIC, S. aureus (ATCC 6538) [12] [µM]",also measured
GLLSVLKSLKKIVPHVVPKIAEKL-NH2 [Caerin 1.1-LC 7.11.19K],128,128,2,2,8,4,8,8,2,2,46.5,4,4,4,4,3.28,4/4 µM,4/4 µM,4,4,"MIC, Ca^2+ [5]: 64 µM; MIC, Control [5]: 2 µM; MIC, FBS [5]: 16 µM; MIC, Fe^3+ [5]: 2 µM; MIC, K^+ [5]: 2 µM; MIC, Mg^2+ [5]: 4 µM; MIC, NH4^+ [5]: 2 µM; MIC, Na^+ [5]: 2 µM; MBC, E. coli (NCTC 13846) [13]: 4 µM; MIC, E. coli (NCTC 13846) [13]: 4 µM"
GLLSVLGSLKKWVPHVVPLIAKKL-NH2 [Caerin 1.1-LC 11K.12K.12W],32,32,2,2,4,4,16,1,4,2,8.5,8,8,4,2,2,4 µM,2 µM,2,1,"MIC, Ca^2+ [5]: 32 µM; MIC, Control [5]: 4 µM; MIC, FBS [5]: 8 µM; MIC, Fe^3+ [5]: 4 µM; MIC, K^+ [5]: 4 µM; MIC, Mg^2+ [5]: 8 µM; MIC, NH4^+ [5]: 4 µM; MIC, Na^+ [5]: 4 µM; MBC, E. coli (NCTC 13846) [13]: 4 µM; MIC, E. coli (NCTC 13846) [13]: 2 µM"
GLLSVLGSLKLIVPGGGPLIAEKL-NH2 [Caerin 1.1-LC PGGGP],>128,>128,128,128,>128,>128,>128,>128,> 128,128,256,>128,>128,>128,>128,256,>128 µM,>128 µM,>128,>128,GM MIC Gram-Negative [14]: 190.21 µM
GLLSVLGSLKLIVPHWWPLIAEKL-NH2 [Caerin 1.1-LC PHWWP],>128,>128,64,32,>128,>128,>128,>128,32,16,256,>128,>128,>128,>128,256,>128 µM,>128 µM,>128,>128,"GM MIC Gram-Negative [14]: 105 µM; MBC, E. coli (NCTC 13846) [13]: 128 µM; MIC, E. coli (NCTC 13846) [13]: 64 µM"
